Data published in PMC4710668, “Bioactivation of food genotoxicants 5-hydroxymethylfurfural and furfuryl alcohol by sulfotransferases from human, mouse and rat: a comparative study” (Archives of Toxicology, 2014).
“And” between values parts separate entries of the source, which are not always exact repeats. Identical values can stand only once.

Key:
[1] = set-up: method as in Monien et al. [2009]; conditions: 100 mg HMF/kg body weight administered to mice; ref Monien et al. [2009]; cited from earlier work
[2] = target: T1, hSULT1A2 (Homo sapiens, UniProt P50226); assay: FFA sulfoconjugation assay (N6-MF-A formation with adenosine as scavenger); type: biochemical
T1 construct: made in house; host or cells: Salmonella typhimurium TA1538 (cytosolic fraction, not purified)
T1 sequence (P50226 whole entry): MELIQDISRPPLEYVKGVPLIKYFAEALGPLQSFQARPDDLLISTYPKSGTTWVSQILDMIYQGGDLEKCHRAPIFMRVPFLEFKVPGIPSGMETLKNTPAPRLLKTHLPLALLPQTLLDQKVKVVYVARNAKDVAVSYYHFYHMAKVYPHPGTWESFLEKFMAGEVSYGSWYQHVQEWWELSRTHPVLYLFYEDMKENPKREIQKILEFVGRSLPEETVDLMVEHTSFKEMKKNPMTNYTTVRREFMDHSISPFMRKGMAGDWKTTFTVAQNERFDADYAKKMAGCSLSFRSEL
Procedure: (§1) Cytosolic fractions containing individual SULT forms were prepared from transgenic S. typhimurium TA1538. Table S1 in the Supplementary Material provides a summary of the thirty SULTs used in the current study together with references describing the cloning of the respective S. typhimurium TA1538 strains. The expressed SULT forms are denoted with the prefixes h, m and r for human, mouse and rat enzymes, respectively. Bacteria were grown in Luria Broth medium containing ampicillin (100 µg/ml) by stirring for 8 h at 200 revolutions/min at 37 °C. The bacterial suspensions were centrifuged at 5,000 g for 10 min. The sediments were washed twice with 25 ml of 10 mM potassium phosphate buffer (pH 7.4)/50 mM potassium chloride (KCP buffer) and centrifuged again. The pellets were taken up in 800 µl KCP buffer and sonicated thrice for 15 s with 30 s pauses in between. The soluble fraction was attained by centrifuging for 1 h at 100,000 g. The supernatants (in the following termed cytosolic preparations) were frozen at −80 °C. The protein concentrations were determined according to a bicinchoninic acid (BCA) assay protocol. The SULT concentrations in the cytosolic preparations were estimated after electrophoretic separation and immunodetection using inclusion bodies of different SULT forms as standards (Teubner et al. [2007]). The preparation of SULT inclusion bodies and the immunodetection of SULTs is described in the Supplementary Material, which also contains a representative immunoblot of different amounts of rSult1a1standard and a cytosolic preparation of S. typhimurium expressing rSult1a1 (Fig. S1).
(§2) The reaction mixtures were prepared as described for HMF. In addition, they contained 10 mM adenosine as a nucleophilic scavenger. Following incubation for 20 min at 37 °C, sulfoconjugation reactions were stopped by adding 100 µl cold methanol containing 175 fmol of [^15N5]N ^6-MF-A as the internal standard, mixed and centrifuged at 15,000 g for 10 min. The clear supernatants were subjected to UPLC-MS/MS analyses. Incubations were performed as quadruplicates. At higher concentrations, FFA reacts spontaneously with adenosine at low, but detectable, levels. To correct for the SULT-independent adduct formation, mixtures with SULT-deficient cytosols were carried along simultaneously in duplicate. Controls were subtracted from the experimental samples.
(§3) The ribonucleoside adduct N ^6-((furan-2-yl)methyl)-adenosine (N ^6-MF-A) was analyzed by isotope-dilution UPLC-MS/MS with the same system described above using a HSS T3 column (1.8 µm, 2.1 × 100 mm, Waters). Samples of 8 µl were eluted with 10 mM ammonium bicarbonate buffer, pH 8.0 (A) and methanol (B) using an 6-min gradient from 98 % solvent A to 15 % solvent A at 0.35 ml/min flow rate (Yin et al. [2013]). The electrospray interface of the mass spectrometer operated in the positive ion mode. The fragmentations of N ^6-MF-A into the aglycone cation [N ^6-((furan-2-yl)methyl)-adenine-H]^+ (m/z = 348.1 → 216.1), the cleavage of the 2-methylfuranyl cation (m/z = 348.1 → 81.0) and the release of [N ^6-methyl-adenine-H]^+ (m/z = 348.1 → 148.0) were monitored together with the corresponding fragmentations of the isotope-labeled internal standard [^15N5]N ^6-MF-A for the formation of the aglycone (m/z = 353.1 → 221.1), the 2-methylfuran cation (m/z = 353.1 → 81.0) and ^15N5-labeled N ^6-methyl-adenine (m/z = 353.1 → 153.0). The N ^6-MF-A content of the incubation mixture was calculated from the ratio of peak areas resulting from the total ion current of all three MRM signals of the analyte. For the fragmentation of N ^6-MF-A ([^15N5]N ^6-MF-A), collision energies were 20, 25 and 35 eV for the transitions m/z = 348.1 → 216.1 (m/z = 353.1 → 221.1), m/z = 348.1 → 148.0 (m/z = 353.1 → 153.0) and m/z = 348.1 → 81.0 (m/z = 353.1 → 81.0), respectively. […]

[3] = target: T2, hSULT1B1 (Homo sapiens, UniProt O43704); assay: as above; type: biochemical
T2 construct: made in house; host or cells: Salmonella typhimurium TA1538 (cytosolic fraction, not purified)
T2 sequence (O43704 whole entry): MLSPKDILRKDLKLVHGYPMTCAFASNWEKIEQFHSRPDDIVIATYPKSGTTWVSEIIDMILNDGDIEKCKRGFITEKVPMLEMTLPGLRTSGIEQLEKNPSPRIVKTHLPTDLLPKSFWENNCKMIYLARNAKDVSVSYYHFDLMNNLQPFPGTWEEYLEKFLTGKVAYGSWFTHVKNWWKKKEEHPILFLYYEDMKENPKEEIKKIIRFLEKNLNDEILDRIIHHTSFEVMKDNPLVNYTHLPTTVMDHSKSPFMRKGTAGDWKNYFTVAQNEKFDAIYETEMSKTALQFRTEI
Procedure: as §1, §2, §3

[4] = target: T3, mSult1b1 (Mus musculus, UniProt Q9QWG7); assay: as above; type: biochemical
T3 construct: made in house; host or cells: Salmonella typhimurium TA1538 (cytosolic fraction, enzyme not purified)
T3 sequence (Q9QWG7 whole entry): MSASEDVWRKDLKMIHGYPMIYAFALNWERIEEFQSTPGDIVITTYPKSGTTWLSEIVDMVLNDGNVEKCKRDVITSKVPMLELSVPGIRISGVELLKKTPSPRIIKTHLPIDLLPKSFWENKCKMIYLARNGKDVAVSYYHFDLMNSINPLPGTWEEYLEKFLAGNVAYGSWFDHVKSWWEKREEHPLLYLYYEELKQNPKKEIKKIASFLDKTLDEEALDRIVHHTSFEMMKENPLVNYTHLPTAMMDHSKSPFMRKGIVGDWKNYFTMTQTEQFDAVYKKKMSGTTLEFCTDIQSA
Procedure: as §1, §2, §3

[5] = target: T4, hSULT1C2 (Homo sapiens, UniProt O75897); assay: as above; type: biochemical
T4 construct: made in house; host or cells: Salmonella typhimurium TA1538 (cytosolic fraction, not purified)
T4 sequence (O75897 whole entry): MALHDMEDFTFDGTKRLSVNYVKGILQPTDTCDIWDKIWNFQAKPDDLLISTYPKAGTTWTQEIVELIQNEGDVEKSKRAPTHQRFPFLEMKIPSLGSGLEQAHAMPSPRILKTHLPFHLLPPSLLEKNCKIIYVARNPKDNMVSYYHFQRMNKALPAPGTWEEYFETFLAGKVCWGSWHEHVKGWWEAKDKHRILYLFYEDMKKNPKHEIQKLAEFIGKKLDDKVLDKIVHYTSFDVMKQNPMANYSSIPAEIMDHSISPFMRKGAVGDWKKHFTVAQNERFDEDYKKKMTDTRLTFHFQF
Procedure: as §1, §2, §3

[6] = target: T5, hSULT1A1 (Homo sapiens, UniProt P50225); assay: as above; type: biochemical
T5 construct: made in house; host or cells: Salmonella typhimurium TA1538 (cytosolic fraction, not purified)
T5 sequence (P50225 whole entry): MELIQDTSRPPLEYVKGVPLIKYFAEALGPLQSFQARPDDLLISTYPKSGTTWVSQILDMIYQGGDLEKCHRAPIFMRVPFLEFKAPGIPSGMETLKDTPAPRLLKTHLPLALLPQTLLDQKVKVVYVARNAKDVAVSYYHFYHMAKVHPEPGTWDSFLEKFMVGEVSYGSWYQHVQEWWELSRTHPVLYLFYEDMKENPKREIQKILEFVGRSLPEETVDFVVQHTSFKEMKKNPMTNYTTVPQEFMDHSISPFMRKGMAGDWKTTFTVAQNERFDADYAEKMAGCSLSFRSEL
Procedure: as §1, §2, §3

[7] = target: T6, rSult2b1 (Rattus norvegicus, UniProt Q29YR5); assay: as above; type: biochemical
T6 construct: made in house; host or cells: Salmonella typhimurium TA1538 (cytosolic fraction, enzyme not purified)
T6 sequence (Q29YR5 1-340): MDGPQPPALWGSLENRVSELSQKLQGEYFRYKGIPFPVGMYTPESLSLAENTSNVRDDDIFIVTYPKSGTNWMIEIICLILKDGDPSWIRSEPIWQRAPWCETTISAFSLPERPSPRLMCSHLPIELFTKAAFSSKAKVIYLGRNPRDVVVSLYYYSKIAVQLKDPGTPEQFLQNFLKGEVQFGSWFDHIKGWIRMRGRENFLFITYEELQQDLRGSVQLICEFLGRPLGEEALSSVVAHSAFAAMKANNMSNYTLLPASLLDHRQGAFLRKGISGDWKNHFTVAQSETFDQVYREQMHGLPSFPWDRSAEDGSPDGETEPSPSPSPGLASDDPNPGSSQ
Procedure: as §1, §2, §3

[8] = target: T7, mSult1c2 (Mus musculus, UniProt Q9D939); assay: as above; type: biochemical
T7 construct: made in house; host or cells: Salmonella typhimurium TA1538 (cytosolic fraction, enzyme not purified)
T7 sequence (Q9D939 whole entry): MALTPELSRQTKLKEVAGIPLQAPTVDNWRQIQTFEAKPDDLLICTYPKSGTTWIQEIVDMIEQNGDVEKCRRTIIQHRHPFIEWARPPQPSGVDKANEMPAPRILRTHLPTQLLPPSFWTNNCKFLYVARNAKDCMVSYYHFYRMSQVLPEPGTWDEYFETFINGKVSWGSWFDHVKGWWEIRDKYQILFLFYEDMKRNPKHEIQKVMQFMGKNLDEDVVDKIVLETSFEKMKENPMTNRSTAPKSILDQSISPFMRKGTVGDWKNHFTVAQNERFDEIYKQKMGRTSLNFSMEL
Procedure: as §1, §2, §3

[9] = 1 mM FFA, corrected by actual SULT concentration in the cytosolic preparation

O=Cc1ccc(CO)o1 [HMF, 5-Hydroxymethylfurfural]
fraction of dose converted to SMF [1]: 500 ppm

OCc1ccco1 [FFA, furfuryl alcohol]
Rate of N6-MF-A formation ([2]; 0.1 mM FFA): <18 fmol N ^6-MF-A/mg/min | Rate of N6-MF-A formation ([2]; 1 mM FFA): 34.8 ± 0.5 fmol N ^6-MF-A/mg/min | Rate of N6-MF-A formation (corr.) [2, 9]: 2,480 ± 30 fmol N ^6-MF-A/mg/min | Rate of N6-MF-A formation ([2]; 10 mM FFA): 150 ± 4 fmol N ^6-MF-A/mg/min | Rate of N6-MF-A formation ([3]; 0.1 mM FFA): 23.3 ± 0.3 fmol N ^6-MF-A/mg/min | Rate of N6-MF-A formation ([3]; 1 mM FFA): 211 ± 2 fmol N ^6-MF-A/mg/min | Rate of N6-MF-A formation (corr.) [3, 9]: 5,010 ± 50 fmol N ^6-MF-A/mg/min | Rate of N6-MF-A formation ([3]; 10 mM FFA): 1,070 ± 20 fmol N ^6-MF-A/mg/min | Rate of N6-MF-A formation ([4]; 0.1 mM FFA): <18 fmol N ^6-MF-A/mg/min | Rate of N6-MF-A formation ([4]; 10 mM FFA): 74.3 ± 1.6 fmol N ^6-MF-A/mg/min | Rate of N6-MF-A formation ([5]; 0.1 mM FFA): 51.3 ± 0.8 fmol N ^6-MF-A/mg/min | Rate of N6-MF-A formation ([5]; 1 mM FFA): 459 ± 2 fmol N ^6-MF-A/mg/min | Rate of N6-MF-A formation (corr.) [5, 9]: 45,900 fmol N ^6-MF-A/mg/min and 45,900 ± 200 fmol N ^6-MF-A/mg/min | Rate of N6-MF-A formation ([5]; 10 mM FFA): 2,230 ± 10 fmol N ^6-MF-A/mg/min | Rate of N6-MF-A formation ([6]; 0.1 mM FFA): 73.5 ± 1.1 fmol N ^6-MF-A/mg/min | Rate of N6-MF-A formation ([6]; 1 mM FFA): 575 ± 2 fmol N ^6-MF-A/mg/min | Rate of N6-MF-A formation (corr.) [6, 9]: 57,500 fmol N ^6-MF-A/mg/min and 57,500 ± 200 fmol N ^6-MF-A/mg/min | ratio of N6-MF-A formation rate, hSULT1A1 vs hSULT1A2, 1A3, 1B1, 1C3 and 2A1 ([6]; 1 mM FFA, corrected rates): 11- to 30 fold | Rate of N6-MF-A formation ([6]; 10 mM FFA): 931 ± 5 fmol N ^6-MF-A/mg/min | Rate of N6-MF-A formation ([7]; 0.1 mM FFA): <18 fmol N ^6-MF-A/mg/min | Rate of N6-MF-A formation ([7]; 1 mM FFA): <20 fmol N ^6-MF-A/mg/min | Rate of N6-MF-A formation ([7]; 10 mM FFA): <44 fmol N ^6-MF-A/mg/min | Rate of N6-MF-A formation ([8]; 0.1 mM FFA): <18 fmol N ^6-MF-A/mg/min | Rate of N6-MF-A formation ([8]; 1 mM FFA): <20 fmol N ^6-MF-A/mg/min | Rate of N6-MF-A formation ([8]; 10 mM FFA): <44 fmol N ^6-MF-A/mg/min
